Test results as given in US12115209B2, “ROMO1-derived antimicrobial peptides including lysine substitution and variants thereof” (KOREA UNIVERSITY RESEARCH AND BUSINESS FOUNDATION, priority 2019, dated 2024).

How the values were obtained:
Type in all cases: cell-based
[1] = tested on: Staphylococcus aureus (ATCC 29213); test: Minimum bactericidal concentration (MBC) assay; design: MBC Staphylococcus aureus: unit: µg/mL; details: Tables 11-21, no unit printed
Description: (§1) First, each of Pseudomonas aeruginosa (ATCC 27853) and Staphylococcus aureus (ATCC 29213) was cultured in 3% (w/v) TSB (tryptic soy broth) liquid medium at 37° C. and 200 rpm for 4 hours, and then further cultured under the same conditions for 3 hours to a concentration of 5×10^6 CFU/ml. Strain solutions were prepared by diluting each of the further cultured strains with SP (sodium phosphate; 10 mM sodium phosphate, 1% TSB) buffer to a final concentration of 2×10^5 CFU/ml.
(§2) Then, each peptide at varying concentrations (0 μg/ml to 300 μg/ml) was dispensed into each well of a 96-well microplate, and 100 μl (1×10^5 CFU/ml) of each of the prepared strain solutions was added thereto, mixed therewith, and allowed to react with the peptide in an incubator at 37° C. for 1 hour.
(§3) In addition, 30 g/L of TS (tryptic soy) and 15 g/L of agar were dissolved in distilled water and sterilized, and then 25 ml of the solution was poured onto a 100 mm round plate and solidified at room temperature for one day or more, thereby preparing a TS agar plate. 10 μl of each reaction solution of the peptide and the strain was plated on the TS agar plate at a constant size, and incubated in an incubator at 37° C. for 18 hours, and then colony formation on the plate was checked. The minimum bactericidal concentration was defined as the minimum concentration of the peptide at which no colony was formed, and the experimental results are shown in Table 1 below.

[2] = tested on: Pseudomonas aeruginosa (ATCC 27853); test: Minimum bactericidal concentration (MBC) assay; design: MBC Pseudomonas aeruginosa: unit: µg/mL; details: Tables 11-21, no unit printed
Description: as §1, §2, §3

[3] = tested on: Pseudomonas aeruginosa, Staphylococcus aureus, CRPA, MRSA; test: Increase in antibacterial activity (MBC) compared with KU-5878; details: mark = antibacterial activity increased compared with KU-5878
[4] = tested on: CRPA; test: Minimum bactericidal concentration (MBC) assay; design: unit: µg/mL; details: Tables 11-21, no unit printed
[5] = tested on: Methicillin-resistant Staphylococcus aureus (MRSA, ATCC 33591); test: Minimum bactericidal concentration (MBC) assay; design: unit: µg/mL; details: Tables 11-21, no unit printed
Description: First, each of Pseudomonas aeruginosa (ATCC 27853) and Staphylococcus aureus (ATCC 29213) was cultured in 3% (w/v) TSB (tryptic soy broth) liquid medium at 37° C. and 200 rpm for 4 hours, and then further cultured under the same conditions for 3 hours to a concentration of 5×10^6 CFU/ml. Strain solutions were prepared by diluting each of the further cultured strains with SP (sodium phosphate; 10 mM sodium phosphate, 1% TSB) buffer to a final concentration of 2×10^5 CFU/ml. […]
In addition, 30 g/L of TS (tryptic soy) and 15 g/L of agar were dissolved in distilled water and sterilized, and then 25 ml of the solution was poured onto a 100 mm round plate and solidified at room temperature for one day or more, thereby preparing a TS agar plate. 10 μl of each reaction solution of the peptide and the strain was plated on the TS agar plate at a constant size, and incubated in an incubator at 37° C. for 18 hours, and then colony formation on the plate was checked.
Specifically, each type of bacteria was cultured in 3% (w/v) TSB (tryptic soy broth) liquid medium at 37° C. and 200 rpm for 4 hours, and then further cultured under the same conditions for 3 hours to a concentration of 5×10^6 CFU/ml. Strain solutions were prepared by diluting each of the further cultured strains with SP buffer to a final concentration of 2×10^5 CFU/ml.
Then, the KU-5878 peptide at varying concentrations (0 μg/ml to 300 μg/ml) was dispensed into each well of a 96-well microplate, and 100 μl (1×10^5 CFU/ml) of each of the prepared strain solutions was added thereto, mixed therewith, and allowed to react with the peptide in an incubator at 37° C. for 1 hour.
In addition, 10 μl of each reaction solution of the peptide and the strain was plated on the TS agar plate at a constant size, and incubated in an incubator at 37° C. for 18 hours, and then colony formation on the plate was checked.

| Substance | MBC Staphylococcus aureus [1] | MBC Pseudomonas aeruginosa [2] | Increase in activity [3] | MBC CRPA [4] | MBC MRSA [5] |
| --- | --- | --- | --- | --- | --- |
| -K-MKKGGKFGTFMAIG-GIR [d 58K 60M 75M] | 6 µg/mL | 6 µg/mL | ◯ | 8 µg/mL | 8 µg/mL |
| -KMM-KGGKF-TFM-IG-GIR [d 58K 62K 68G 72A 75M] | 15 µg/mL | 16 µg/mL | ◯ | 15 µg/mL | 18 µg/mL |
| -KMMKK-GKFG-F--IGMGIR [d 58K 64G 69T 71M 72A] | 2 µg/mL | 2 µg/mL | ◯ | 3 µg/mL | 3 µg/mL |
| -KMMKKGGKFGTF-AIG-GIR [d 58K 71M 75M] | 3 µg/mL | 4 µg/mL | ◯ | 2 µg/mL | 4 µg/mL |
| -KMMKKGGKFGTF-AIGMGIR [Peptide K4-d58K-d71M] | 8 µg/mL | 10 µg/mL | ◯ | 10 µg/mL | 10 µg/mL |
| -KMMKKGGKFGTFMAIGMGIR [5878-K4-d58K(=d59K)] | 6 µg/mL | 2 µg/mL | ◯ | 6 µg/mL | 2 µg/mL |
| KK---KGGKFGTF-AIG-GIR [d 60M 61M 62K 71M 75M] | 80 µg/mL | 80 µg/mL | ◯ | 80 µg/mL | 80 µg/mL |
| KK-M-KGGKF-TFM-IG-GIR [d 60M 62K 68G 72A 75M] | 4 µg/mL | 4 µg/mL | ◯ | 4 µg/mL | 5 µg/mL |
| KK-MKKGGKFGTF--IGMGIR [d 60M 71M 72A] | 8 µg/mL | 8 µg/mL | ◯ | 8 µg/mL | 10 µg/mL |
| KK-MKKGGKFGTF-AIG-GIR [d 60M 71M 75M] | 2 µg/mL | 2 µg/mL | ◯ | 3 µg/mL | 2 µg/mL |
| KK-MKKGGKFGTF-AIGMGIR [Peptide K4-d60M-d71M] | 10 µg/mL | 10 µg/mL | ◯ | 10 µg/mL | 12 µg/mL |
| KK-MKKGGKFGTFMAIGMGIR [5878-K4-d60M(=d61M)] | 3 µg/mL | 2 µg/mL | ◯ | 4 µg/mL | 2 µg/mL |
| KKIIKKGGKFGTFIAIGIGIR [Peptide K4-4MI] | 2 | 3 | ◯ | 3 | 3 |
| KKMM-K-GKF-TFM-IG-GIR [d 62K 64G 68G 72A 75M] | 4 µg/mL | 4 µg/mL | ◯ | 4 µg/mL | 4 µg/mL |
| KKMM-KGGKF--FM-IG-GIR [d 62K 68G 69T 72A 75M] | 8 µg/mL | 8 µg/mL | ◯ | 8 µg/mL | 10 µg/mL |
| KKMM-KGGKF-TF--IG-GIR [d 62K 68G 71M 72A 75M] | 20 µg/mL | 20 µg/mL | ◯ | 20 µg/mL | 25 µg/mL |
| KKMM-KGGKFGTF-AIG-GIR [d 62K 71M 75M] | 4 µg/mL | 3 µg/mL | ◯ | 4 µg/mL | 3 µg/mL |
| KKMM-KGGKFGTF-AIGMGIR [Peptide K4-d62K-d71M] | 12 µg/mL | 12 µg/mL | ◯ | 12 µg/mL | 12 µg/mL |
| KKMM-KGGKFGTFMAIGMGIR [5878-K4-d62K(=d63K)] | 6 µg/mL | 2 µg/mL | ◯ | 6 µg/mL | 6 µg/mL |
| KKMMKK-GKFGTF-AIG-GIR [d 64G 71M 75M] | 3 µg/mL | 2 µg/mL | ◯ | 3 µg/mL | 3 µg/mL |
| KKMMKK-GKFGTF-AIGMGIR [Peptide K4-d64G-d71M] | 15 µg/mL | 15 µg/mL | ◯ | 18 µg/mL | 18 µg/mL |
| KKMMKK-GKFGTFMAIGMGIR [5878-K4-d64G(=d65G)] | 2 µg/mL | 2 µg/mL | ◯ | 4 µg/mL | 2 µg/mL |
| KKMMKKGG-FGTFMAIGMGIR [Peptide 5878-K4-d66K] | 6 µg/mL | 4 µg/mL | ◯ | 4 µg/mL | 4 µg/mL |
| KKMMKKGGK-GTFMAIGMGIR [Peptide 5878-K4-d67F] | 6 µg/mL | 4 µg/mL | ◯ | 5 µg/mL | 4 µg/mL |
| KKMMKKGGKF-TFMAIGMGIR [Peptide 5878-K4-d68G] | 4 µg/mL | 4 µg/mL | ◯ | 6 µg/mL | 4 µg/mL |
| KKMMKKGGKFG-F--IGMGIR [d 69T 71M 72A] | 2 µg/mL | 2 µg/mL | ◯ | 3 µg/mL | 4 µg/mL |
| KKMMKKGGKFG-F-AIG-GIR [d 69T 71M 75M] | 2 µg/mL | 2 µg/mL | ◯ | 3 µg/mL | 2 µg/mL |
